# Laboratory results taken from PubChem BioAssay AID588624 (NMMLSC, 2011).
# Active and inactive are the calls of the source.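 How the source made its calls: active means half-maximal concentration at most 10 µM with response span of at least 30% and a trustworthy curve fit; inactive means the rest.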
# Molecular target: Cell division control protein 42 homolog (Homo sapiens) (UniProt P60953)
# Experiment: inhibitors of activated Cdc42 GTP binding, SAR follow-up, selectivity assay for Rab7 inhibitor project, biochemical, activated mutant, bead multiplex, flow cytometry, round 2 (AID 588624)
# Settings: GST-Cdc42 act beads, Bodipy-GTP binding; for percent response of GTP binding: at 100 µM (top of the series)
# Cell division control protein 42 homolog (Homo sapiens), sequence (P60953 whole entry, looked up): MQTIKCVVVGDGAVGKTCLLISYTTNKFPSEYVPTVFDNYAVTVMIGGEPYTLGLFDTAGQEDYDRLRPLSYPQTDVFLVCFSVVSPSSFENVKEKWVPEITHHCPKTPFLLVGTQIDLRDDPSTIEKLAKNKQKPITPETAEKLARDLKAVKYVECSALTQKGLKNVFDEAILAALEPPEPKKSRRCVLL
SMILES,percent response of GTP binding,EC50 [nM]
Cc1ccc(C(=O)NC(=S)Nc2sc3c(c2C(=O)O)CC(C)(C)OC3)cc1,inactive,
CC1(C)Cc2c(sc(NC(=S)NC(=O)c3ccc(Br)cc3)c2C(=O)O)CO1,,32100
Cc1ccccc1C(=O)NC(=S)Nc1sc2c(c1C(=O)O)CC(C)(C)OC2,,1350
CC1(C)Cc2c(sc(NC(=S)Nc3ccccc3)c2C(=O)O)CO1,inactive,
O=C(NC(=S)Nc1sc2c(c1C(=O)O)CC1(CCCC1)OC2)c1ccccc1,inactive,
CC1(C)Cc2c(sc(NC(=S)NC(=O)c3cccc(F)c3)c2C(=O)O)CO1,,5830
CC1(C)Cc2c(sc(NC(=O)NC(=O)c3ccccc3)c2C(=O)O)CO1,inactive,
COc1ccccc1C(=O)NC(=S)Nc1sc2c(c1C(=O)O)CC(C)(C)OC2,inactive,
CC1(C)Cc2c(sc(NC(=S)NC(=O)c3ccco3)c2C(=O)O)CO1,,326
CC1(C)Cc2c(sc(NC(=S)NC(=O)c3ccccc3F)c2C(=O)O)CO1,,2090
CC1(C)Cc2c(sc(NC(=S)NC(=O)c3cccs3)c2C(=O)O)CO1,inactive,
CC1(C)CCc2sc(NC(=S)NC(=O)c3ccccc3)c(C(=O)O)c2C1,inactive,
CCC1(C)Cc2c(sc(NC(=S)NC(=O)c3ccccc3)c2C(=O)O)CO1 (centres undefined),,177
O=C(NC(=S)Nc1sc2c(c1C(=O)O)CCOC2)c1ccccc1,inactive,12500
CC1(C)Cc2c(sc(NC(=S)NC(=O)C3CCCCC3)c2C(=O)O)CO1,,3130
COc1ccc(C(=O)NC(=S)Nc2sc3c(c2C(=O)O)CC(C)(C)OC3)cc1,inactive,
Cc1cccc(C(=O)NC(=S)Nc2sc3c(c2C(=O)O)CC(C)(C)OC3)c1,inactive,
CC1(C)Cc2c(sc(NC(=S)NC(=O)c3cccc(Br)c3)c2C(=O)O)CO1,,40600
CC1(C)Cc2c(sc(NC(=S)NC(=O)c3ccc(F)cc3)c2C(=O)O)CO1,,692
CC1Cc2c(sc(NC(=S)NC(=O)c3ccccc3)c2C(=O)O)CO1 (centres undefined),,7980
CC1(C)Cc2c(sc(NC(=S)NC(=O)c3ccccc3Br)c2C(=O)O)CO1,,29500
CC(C)(C)C1Cc2c(sc(NC(=S)NC(=O)c3ccccc3)c2C(=O)O)CO1 (centres undefined),,935
COc1cccc(C(=O)NC(=S)Nc2sc3c(c2C(=O)O)CC(C)(C)OC3)c1,,1310
